From US12459951B2, “Compounds that interact with RAS superfamily proteins for treatment of cancers, inflammatory diseases, rasopathies, and fibrotic disease” (SHY Therapeutics, LLC, priority 2022, dated 2025)

What was measured:
TNF-alpha = TNF-alpha Quantification Assay (ELISA), LPS-stimulated RAW 264.7; assay type: cell-based; conditions: Mus musculus, RAW264.7; at 10 μM; read-out: TNFα: % inh.
Rac-1 = molecular target: T1, Rac-1 (Homo sapiens, UniProt P63000); experiment: Ras GTP Binding Domain Inhibition Assay (Ras Superfamily Assay); conditions: read-out: Rac-1: % inh.
T1 construct: made in house
In short: (§1)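 His-tagged GTPases immobilised on nickel-coated plates, pre-incubated with compound (20 μM single point, or serial dilution for IC50) 3 h at room temperature, with or without 10-30 μg/mL Sos (residues 556-1049) in the final hour. Bound Cy3- or Cy5-GTP (100 nM, 45 min) measured by fluorescence after washing.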

KRas wild type = experiment: as above; conditions: at 20 μM; for KRas wild type + SOS: % inh.: with SOS; for KRas wild type: % inh.: without SOS
In short: as §1

KRas G12D mutant = experiment: as above; conditions: at 20 μM; for KRas G12D mutant + SOS: % inh.: with SOS; for KRas G12D mutant: % inh.: without SOS
In short: as §1

[1] = test system: Smad2/Smad3 phosphorylation; experiment: Phospho-Smad2/3 Inhibition Assay (western blot), Panc-1; assay type: cell-based, human; conditions: at 10 μM, Panc-1 pancreatic cancer cell line; starred symbols = activation
In short: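 Western blotting of lysates (15-50 μg protein) read phosphorylation of Smad2 Ser465/467 and Smad3 Ser423/425. Before lysis, Panc-1 cells got 1 h of 10 ng/ml TGF-b1 following 3 h compound exposure at 37° C (10 μM final, or serial dilutions for IC50, 0.3% DMSO) after overnight 0.5% FBS starvation.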

Row | Structure (SMILES) | inhibition at 20 µM (Rac-1) | KRas wild type + SOS: % inh. (KRas wild type) | KRas wild type: % inh. (KRas wild type) | KRas G12D mutant + SOS: % inh. (KRas G12D mutant) | KRas G12D mutant: % inh. (KRas G12D mutant) | inhibition at 10 µM (TNF-alpha) | % inh of Smad2/3 phosphorylation in Panc-1 [1]
1 | COc1ccc(Nc2nc(-c3nccn3C)nn3cc(-c4ccn(C)n4)c(C)c23)nc1 [Compound 224, N-(5-Methoxypyridin-2-yl)-5-methyl-2-(1-methyl-1H-imidazol-2-yl)-6-(1-methyl-1H-pyrazol-3-yl)pyrrolo[2,1-f][1,2,4]triazin-4-amine] | 76 to 100% | D (D = 76-100% inhibition) | D (D = 76-100% inhibition) | D (D = 76-100% inhibition) | D (D = 76-100% inhibition) | 1 to 24% | 0 (0 = 0% inhibition)
2 | COc1ccc(N(C)c2nc(-c3nccn3C)nn3cc(-c4ccn(C)n4)c(C)c23)nc1 [Compound 225, N-(5-Methoxypyridin-2-yl)-N,5-dimethyl-2-(1-methyl-1H-imidazol-2-yl)-6-(1-methyl-1H-pyrazol-3-yl)pyrrolo[2,1-f][1,2,4]triazin-4-amine] | 1 to 25% | A (A = 1-25% inhibition) | A (A = 1-25% inhibition) | A (A = 1-25% inhibition) | B (B = 26-49% inhibition) | 0% | 0 (0 = 0% inhibition)
3 | Cc1ccc(Nc2nc(-c3nccn3C)nn3cc(-c4ccn(C)n4)c(C)c23)nc1 [Compound 226, 5-Methyl-2-(1-methyl-1H-imidazol-2-yl)-6-(1-methyl-1H-pyrazol-3-yl)-N-(5-methylpyridin-2-yl)pyrrolo[2,1-f][1,2,4]triazin-4-amine] | 76 to 100% | D (D = 76-100% inhibition) | D (D = 76-100% inhibition) | D (D = 76-100% inhibition) | D (D = 76-100% inhibition) | 25 to 49% | D (D = 76-100% inhibition)
4 | Cc1c(-c2ccn(C)n2)cn2nc(-c3nccn3C)nc(Nc3ccc(N(C)C)cn3)c12 [Compound 227, N5,N5-Dimethyl-N2-(5-methyl-2-(1-methyl-1H-imidazol-2-yl)-6-(1-methyl-1H-pyrazol-3-yl)pyrrolo[2,1-f][1,2,4]triazin-4-yl)pyridine-2,5-diamine] | 76 to 100% | D (D = 76-100% inhibition) | D (D = 76-100% inhibition) | D (D = 76-100% inhibition) | D (D = 76-100% inhibition) | 50 to 74% | C (C = 46-75% inhibition)
5 | Cc1c(-c2ccn(C)n2)cn2nc(-c3nccn3C)nc(Nc3ccc(N4CCCC4)cn3)c12 [Compound 228, 5-Methyl-2-(1-methyl-1H-imidazol-2-yl)-6-(1-methyl-1H-pyrazol-3-yl)-N-(5-(pyrrolidin-1-yl)pyridin-2-yl)pyrrolo[2,1-f][1,2,4]triazin-4-amine] | 76 to 100% | C (C = 50-75% inhibition) | C (C = 50-75% inhibition) | C (C = 50-75% inhibition) | D (D = 76-100% inhibition) | 1 to 24% | 0 (0 = 0% inhibition)
6 | CCOc1ccc(Nc2nc(-c3nccn3C)nn3cc(-c4ccn(C)n4)c(C)c23)nc1 [Compound 229, N-(5-Ethoxypyridin-2-yl)-5-methyl-2-(1-methyl-1H-imidazol-2-yl)-6-(1-methyl-1H-pyrazol-3-yl)pyrrolo[2,1-f][1,2,4]triazin-4-amine] | 76 to 100% | D (D = 76-100% inhibition) | C (C = 50-75% inhibition) | D (D = 76-100% inhibition) | D (D = 76-100% inhibition) | 0% | A* (A* = 1-25% activation)
7 | Cc1c(-c2ccn(C)n2)cn2nc(-c3nccn3C)nc(Nc3ccc(OCC(F)(F)F)cn3)c12 [Compound 230, 5-Methyl-2-(1-methyl-1H-imidazol-2-yl)-6-(1-methyl-1H-pyrazol-3-yl)-N-(5-(2,2,2-trifluoroethoxy)pyridin-2-yl)pyrrolo[2,1-f][1,2,4]triazin-4-amine] | 76 to 100% | D (D = 76-100% inhibition) | D (D = 76-100% inhibition) | D (D = 76-100% inhibition) | D (D = 76-100% inhibition) | 1 to 24% | D (D = 76-100% inhibition)
8 | Cc1c(-c2ccn(C)n2)cn2nc(-c3nccn3C)nc(Nc3ccc(OC(F)F)cn3)c12 [Compound 231, N-(5-(Difluorometh-oxy)pyridin-2-yl)-5-methyl-2-(1-methyl-1H-imidazol-2-yl)-6-(1-methyl-1H-pyrazol-3-yl)pyrrolo[2,1-f][1,2,4]triazin-4-amine] | 76 to 100% | B (B = 26-49% inhibition) | B (B = 26-49% inhibition) | C (C = 50-75% inhibition) | C (C = 50-75% inhibition) | 0% | D (D = 76-100% inhibition)

Second part, led by results:

Row | inhibition at 20 µM (Rac-1) | KRas wild type + SOS: % inh. (KRas wild type) | KRas wild type: % inh. (KRas wild type) | KRas G12D mutant + SOS: % inh. (KRas G12D mutant) | KRas G12D mutant: % inh. (KRas G12D mutant) | Structure (SMILES) | inhibition at 10 µM (TNF-alpha) | % inh of Smad2/3 phosphorylation in Panc-1 [1]
9 | 76 to 100% | D (D = 76-100% inhibition) | D (D = 76-100% inhibition) | D (D = 76-100% inhibition) | D (D = 76-100% inhibition) | Cc1c(-c2ccn(C)n2)cn2nc(-c3nccn3C)nc(Nc3ccc(OC(F)(F)F)cn3)c12 [Compound 232, 5-Methyl-2-(1-methyl-1H-imidazol-2-yl)-6-(1-methyl-1H-pyrazol-3-yl)-N-(5-(trifluoro-methoxy)pyridin-2-yl)pyrrolo[2,1-f][1,2,4]triazin-4-amine] | 1 to 24% | B (B = 26-45% inhibition)
10 | 76 to 100% | D (D = 76-100% inhibition) | D (D = 76-100% inhibition) | D (D = 76-100% inhibition) | D (D = 76-100% inhibition) | Cc1c(-c2ccn(C)n2)cn2nc(-c3nccn3C)nc(Nc3ccc(C(F)(F)F)cn3)c12 [Compound 233, 5-Methyl-2-(1-methyl-1H-imidazol-2-yl)-6-(1-methyl-1H-pyrazol-3-yl)-N-(5-(trifluoromethyl)pyridin-2-yl)pyrrolo[2,1-f][1,2,4]triazin-4-amine] | 1 to 24% | B (B = 26-45% inhibition)
11 | 76 to 100% | D (D = 76-100% inhibition) | C (C = 50-75% inhibition) | D (D = 76-100% inhibition) | D (D = 76-100% inhibition) | Cc1c(-c2ccn(C)n2)cn2nc(-c3nccn3C)nc(Nc3ccc(C(F)F)cn3)c12 [Compound 234, N-(5-(Difluoromethyl)pyridin-2-yl)-5-methyl-2-(1-methyl-1H-imidazol-2-yl)-6-(1-methyl-1H-pyrazol-3-yl)pyrrolo[2,1-f][1,2,4]triazin-4-amine] | 1 to 24% | D (D = 76-100% inhibition)
12 | 50 to 75% | B (B = 26-49% inhibition) | C (C = 50-75% inhibition) | C (C = 50-75% inhibition) | C (C = 50-75% inhibition) | COc1cc(Nc2nc(-c3nccn3C)nn3cc(-c4ccn(C)n4)c(C)c23)ncc1C [Compound 235, N-(4-Methoxy-5-methylpyridin-2-yl)-5-methyl-2-(1-methyl-1H-imidazol-2-yl)-6-(1-methyl-1H-pyrazol-3-yl)pyrrolo[2,1-f][1,2,4]triazin-4-amine] | 0% | 0 (0 = 0% inhibition)
13 | 50 to 75% | B (B = 26-49% inhibition) | B (B = 26-49% inhibition) | B (B = 26-49% inhibition) | C (C = 50-75% inhibition) | COc1cnc(Nc2nc(-c3nccn3C)nn3cc(-c4ccn(C)n4)c(C)c23)cc1C [Compound 236, N-(5-Methoxy-4-methylpyridin-2-yl)-5-methyl-2-(1-methyl-1H-imidazol-2-yl)-6-(1-methyl-1H-pyrazol-3-yl)pyrrolo[2,1-f][1,2,4]triazin-4-amine] | 0% | 0 (0 = 0% inhibition)
14 | 76 to 100% | D (D = 76-100% inhibition) | D (D = 76-100% inhibition) | D (D = 76-100% inhibition) | D (D = 76-100% inhibition) | COc1cc(Nc2nc(-c3nccn3C)nn3cc(-c4ccn(C)n4)c(C)c23)ncc1F [Compound 237, N-(5-Fluoro-4-methoxypyridin-2-yl)-5-methyl-2-(1-methyl-1H-imidazol-2-yl)-6-(1-methyl-1H-pyrazol-3-yl)pyrrolo[2,1-f][1,2,4]triazin-4-amine] | 0% | A (A = 1-25% inhibition)
